In ChEMBL document CHEMBL1131675, “A new anti-tubulin agent containing the benzo[b]thiophene ring system” (1999):

What was measured:
[1] = system: P388; assay: Inhibition of murine P388 lymphocytic leukemia cell proliferation; format: functional; conditions: Mus musculus, read-out: ED50 (the source's name)
[2] = target: Tubulin alpha chain (Sus scrofa) (UniProt P02550); assay: Percentage control on Tubulin- Dependent GTP hydrolysis was evaluated at 10 micro M concentration; format: functional; set-up: scale not given: the % may be the effect or the level left
[3] = target: Tubulin alpha chain (Sus scrofa) (UniProt P02550); assay: Percentage control on Tubulin- Dependent GTP hydrolysis was evaluated at 50 micro M concentration; format: functional; set-up: scale not given: the % may be the effect or the level left
[4] = target: Tubulin alpha chain (Sus scrofa) (UniProt P02550); assay: Percentage control on Tubulin-Dependent GTP hydrolysis was evaluated at 10 uM concentration; format: functional; set-up: scale not given: the % may be the effect or the level left
[5] = target: Tubulin alpha chain (Sus scrofa) (UniProt P02550); assay: Percentage control on Tubulin-Dependent GTP hydrolysis was evaluated at 50 uM concentration; format: functional; set-up: scale not given: the % may be the effect or the level left
[6] = target: Tubulin alpha chain (Sus scrofa) (UniProt P02550); assay: Percentage inhibition of [3H]colchicine binding to tubulin was evaluated at 50 uM concentration

Sequence of Tubulin alpha chain (Sus scrofa) (P02550 whole entry, looked up): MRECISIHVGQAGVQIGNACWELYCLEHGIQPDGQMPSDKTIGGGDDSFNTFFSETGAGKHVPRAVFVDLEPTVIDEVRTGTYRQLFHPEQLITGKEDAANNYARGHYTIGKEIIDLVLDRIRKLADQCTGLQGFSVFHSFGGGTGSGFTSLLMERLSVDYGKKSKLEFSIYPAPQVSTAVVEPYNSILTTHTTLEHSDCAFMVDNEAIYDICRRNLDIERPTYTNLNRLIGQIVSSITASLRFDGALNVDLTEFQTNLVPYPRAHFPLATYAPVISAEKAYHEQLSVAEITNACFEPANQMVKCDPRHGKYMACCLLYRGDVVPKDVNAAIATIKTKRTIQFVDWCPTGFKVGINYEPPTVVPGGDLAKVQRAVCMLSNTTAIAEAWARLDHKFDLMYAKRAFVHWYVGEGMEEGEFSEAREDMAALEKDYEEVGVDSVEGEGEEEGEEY

| SMILES | EC50 [1] | Control [2] | Control [3] | also measured |
| --- | --- | --- | --- | --- |
| COc1ccc(-c2sc3cc(OC)ccc3c2C(=O)c2cc(OC)c(O)c(OC)c2)cc1 | > 100 µg/mL | – | – | – |
| COc1ccc(-c2sc3cc(OC)ccc3c2C(=O)c2c(OC)cccc2OC)cc1 | > 100 µg/mL | – | – | – |
| COc1ccc(-c2sc3cc(OC)ccc3c2C(=O)c2cc(OC)cc(OC)c2)cc1 | > 100 µg/mL | – | – | – |
| COc1cc([C@@H]2c3cc4c(cc3[C@H](O)[C@H]3COC(=O)[C@H]23)OCO4)cc(OC)c1OC | – | 43% | 31% | – |
| COc1ccc(-c2sc3cc(OC)ccc3c2C(=O)c2cc(OC)c(OC)c(OC)c2)cc1 | – | – | – | Control [4]: 122%; Control [5]: 135%; inhibition [6]: 28% |
| COc1ccc(/C=C\c2cc(OC)c(OC)c(OC)c2)cc1O | – | 161% | 160% | – |
